Holding throughout (experiment): arrestin2 recruitment BRET assay (V2R-Rluc / arrestin2-YFP)
Holding throughout (assay type): cell-based
Background: Arrestin recruitment assays detect the binding of arrestin to an activated receptor.

The subject of assay [1] is V2R-S357A mutant (V2Rpp-3 site). Particulars: HEK293 cells, 37 °C, 10 min, normalized to maximal response of V2R-WT. As for the experimental part:
(§1) After 24 h of transfection, the cells were detached and distributed into 96-well plates at a density of ~25,000 cells per well. After another 24 h incubation at 37 °C, the cells were washed twice with Tyrode’s buffer (140 mM NaCl, 2.7 mM KCl, 1 mM CaCl2, 12 mM NaHCO3, 5.6 mM D-glucose, 0.5 mM MgCl2, 0.37 mM NaH2PO4, and 25 mM HEPES, pH = 7.4) and incubated with vehicle or different concentration ligands (Argipressin) at 37 °C for 10 min Luciferase substrate coelenterazine-h was added at a final concentration of 5 μM before light emissions were recorded using a Mithras LB940 microplate reader (Berthold Technologies) equipped with BRET filter sets. The BRET signal was determined by calculating the ratio of the light intensity emitted by YFP (530/20 nm) over the light intensity emitted by Rluc (485/20 nm). Source data are provided in a Source Data file.
(§2) Supplementary Fig. 14. Surface expression and arrestin2 recruitment toward different V2R phosphor- […]
(§3) a-b). Elisa experiments to assay the expression levels of the wild type and indicated mutants of V2R or V2R-Rluc in HEK293 cells. Data from three independent experiments (n=3) are presented as mean ± SD. Statistical differences between WT and mutations were determined by two-sided one-way ANOVA with Tukey test. “ns”: the […]
(§4) c). The vasopressin-induced arrestin2 recruitment to different V2R phospho-deficient mutants were compared with V2R-WT, examined by BRET assay in a concentration dependent manner. n = 3 biologically independent replicates were examined for three independent experiments. Data (means ± SEM) of each mutant were normalized to […]
(§5) maximal response of V2R-WT. d). Statistical analysis of the Emax and pEC50 of vasopressin induced arrestin2 recruitment to V2R WT or V2R […]

Assay [2] has as its system V2R-S363A/S364A (V2Rpp-6-7 site). Particulars: HEK293 cells, 37 °C, 10 min, normalized to maximal response of V2R-WT. The method, then:
as §1, §2, §3, §4, §5

The test system of a further assay is V2R-T360A (V2Rpp-4 site). To be noted: HEK293 cells, 37 °C, 10 min, normalized to maximal response of V2R-WT. As for the experimental part: as §1, §2, §3, §4, §5
In assay [3] the test system is wild-type V2R and V2R mutants. To be noted: HEK293 cells; different V2R mutants compared with wild-type V2R; 37 °C, 10 min. As for the experimental part:
as §1, §2, §3, §4, §5

Turning to vasopressin, the results for the “Emax of arrestin2 recruitment compared to that of wild-type V2R” value (in assay [1]; in assay [2]; in the assay on V2R-T360A (V2Rpp-4 site)) were 60%, “approximately 30%” and “approximately 30%”, respectively. Moreover, in assay [3], the “EC50 of vasopressin-induced V2R-arrestin2 interaction” value is “similar”.

(Values after paper PMC8062632, “Structural studies of phosphorylation-dependent interactions between the V2R receptor and arrestin-2” (Nature Communications, 2021).)
